According to patent publication US20030212107A1, “R-reliprodil for treating glaucoma” (priority 2002, published 2003):
Entries after “also recorded” stand apart in the source; their conditions may differ.

Legend:
[1] = system: NMDA-induced firing rate of the lateral vestibular nucleus; assay: NMDA-induced firing rate of the lateral vestibular nucleus in vivo
[2] = system: piglet Purkinje fibre; conditions: for Concentration with statistically significant prolongation of APD90: pig
Method: Eliprodil and its two enantiomers induced concentration-dependent prolongation of the duration of the action potential of the piglet Purkinje fibre, particularly at the 0.25 Hz frequency. Based on action potential duration at 90% repolarization (APD90), statistically significant prolongation was evident at R(−) eliprodil concentrations of 100 nM and higher, but at S(+) eliprodil concentrations of 30 nM and higher. With high concentrations, APD90 decreased with both compounds.

[3] = system: cultured rat retinal ganglion cells; assay: Glutamate-induced rat retinal ganglion cell death; assay type: cell-based; conditions: 10 nM for 30 minutes, then 100 μM glutamate; viable cells counted after 3 days; FIG. 1
Source text: Retinal ganglion cells were selected as they represent the retinal cell that degenerates in glaucoma. MK-801 was selected as a reference NMDA antagonist.
Isolation of rat retinal ganglion cells and assessment of viability in the absence and presence of glutamate was described in Pang, et al., “Protection by Eliprodil Against Excitotoxicity in Cultured Rat Retinal Ganglion Cells”, Investigative Ophthalmology & Visual Science, Vol. 40(6), pp. 1170-1176, May, 1999. Briefly, isolated cultured rat retinal ganglion cells were treated with racemic (R/S) eliprodil (10 nM), R-eliprodil (10 nM), or S-eliprodil (10 nM) for thirty (30) minutes followed by the addition of 100 μM glutamate. Survival was determined by counting viable cells after an incubation period of three (3) days. Survival with vehicle alone defines 100%. […] S-eliprodil was ineffective.

[4] = following some doses in humans; cited from earlier work
[5] = system: hippocampal slices; assay: Recovery of synaptic transmission after hypoxia in hippocampal slices in vitro; conditions: for Recovery of excitatory post synaptic potentials following hypoxia (efficacy): comparable dose, 15 minute hypoxia, recovery assessed 60 minutes after reoxygenation
Method: Dose-Response Relations Comparing the Efficacy of Racemic (R/S)-Eliprodil (Open Circles), R-Eliprodil (Closed Circles) and Memantine (Closed Diamonds) for their Ability to Improve Recovery of Synaptic Transmission Following a 15 Minute Period of Hypoxia in Hippocampal Slices in vitro (FIG. 2). […] Briefly, hippocampal slices were prepared acutely the same day as the experiment, and each compound was bath applied 30 minutes prior to delivery of the 15 minute hypoxic insult. Recovery of evoked […] expressed as percent of the initial, pre-hypoxia epsp maximum slope, with this percent recovery assessed 60 minutes after reoxygenation.

[6] = system: α1-adrenergic; assay: Binding studies; conditions: α1-adrenergic binding site
Source text: (§1) The role of these pharmacological activities in the neuroprotective efficacy has not been established for this drug.

[7] = molecular target: 5-HT2A (Homo sapiens, UniProt P28223); assay: Binding studies; conditions: 5-HT2A binding site
Sequence of 5-HT2A (P28223 whole entry, species assumed): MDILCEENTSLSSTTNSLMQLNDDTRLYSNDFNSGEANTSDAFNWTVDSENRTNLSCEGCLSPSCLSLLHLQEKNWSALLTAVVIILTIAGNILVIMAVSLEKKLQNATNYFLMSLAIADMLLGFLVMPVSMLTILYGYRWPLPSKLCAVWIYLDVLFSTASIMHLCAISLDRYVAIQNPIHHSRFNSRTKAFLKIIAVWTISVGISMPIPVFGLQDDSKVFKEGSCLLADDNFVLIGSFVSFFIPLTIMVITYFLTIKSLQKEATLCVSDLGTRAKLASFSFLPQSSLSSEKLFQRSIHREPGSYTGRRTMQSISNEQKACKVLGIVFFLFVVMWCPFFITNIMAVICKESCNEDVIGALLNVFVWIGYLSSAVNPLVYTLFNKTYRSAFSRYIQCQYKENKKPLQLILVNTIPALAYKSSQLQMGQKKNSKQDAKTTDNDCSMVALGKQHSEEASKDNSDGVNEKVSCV
Source text: as §1

[8] = molecular target: T1, 5-HT1A (Homo sapiens, UniProt P08908); assay: Binding studies; conditions: 5-HT1A binding site
T1 sequence (P08908 1-422): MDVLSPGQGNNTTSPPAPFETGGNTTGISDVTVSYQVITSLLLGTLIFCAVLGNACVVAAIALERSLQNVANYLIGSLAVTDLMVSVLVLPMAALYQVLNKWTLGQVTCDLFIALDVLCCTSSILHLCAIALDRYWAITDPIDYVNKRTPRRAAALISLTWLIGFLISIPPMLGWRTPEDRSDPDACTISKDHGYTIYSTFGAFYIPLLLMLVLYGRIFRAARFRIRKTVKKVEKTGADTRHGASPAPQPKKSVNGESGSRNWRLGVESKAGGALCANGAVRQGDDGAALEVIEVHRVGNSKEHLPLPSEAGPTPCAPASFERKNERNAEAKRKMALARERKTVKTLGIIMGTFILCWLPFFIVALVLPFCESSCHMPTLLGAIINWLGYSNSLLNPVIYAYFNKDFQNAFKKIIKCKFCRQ
Source text: as §1

[9] = molecular target: 5-HT uptake (Homo sapiens, UniProt P31645); assay: Binding studies; conditions: 5-HT uptake binding site
Sequence of 5-HT uptake (P31645 whole entry): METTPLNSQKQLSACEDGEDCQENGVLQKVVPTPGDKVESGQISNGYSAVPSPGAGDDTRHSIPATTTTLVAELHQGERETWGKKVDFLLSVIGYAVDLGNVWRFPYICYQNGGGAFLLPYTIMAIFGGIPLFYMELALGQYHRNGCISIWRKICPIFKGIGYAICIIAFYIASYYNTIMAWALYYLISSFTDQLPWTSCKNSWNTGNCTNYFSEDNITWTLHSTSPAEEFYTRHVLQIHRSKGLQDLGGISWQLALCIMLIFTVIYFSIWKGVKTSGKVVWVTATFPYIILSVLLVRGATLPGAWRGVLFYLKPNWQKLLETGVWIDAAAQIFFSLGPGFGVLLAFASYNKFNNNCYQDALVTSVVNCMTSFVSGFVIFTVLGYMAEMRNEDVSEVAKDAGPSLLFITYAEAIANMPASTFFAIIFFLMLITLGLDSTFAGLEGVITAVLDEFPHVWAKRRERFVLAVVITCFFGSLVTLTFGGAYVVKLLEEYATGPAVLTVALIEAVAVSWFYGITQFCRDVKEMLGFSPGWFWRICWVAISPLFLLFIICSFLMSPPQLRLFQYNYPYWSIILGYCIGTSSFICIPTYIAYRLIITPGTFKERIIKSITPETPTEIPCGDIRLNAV
Source text: as §1

[10] = molecular target: 5-HT7 (Homo sapiens, UniProt P34969); assay: Binding studies; conditions: 5-HT7 binding site
Sequence of 5-HT7 (P34969 whole entry, species assumed): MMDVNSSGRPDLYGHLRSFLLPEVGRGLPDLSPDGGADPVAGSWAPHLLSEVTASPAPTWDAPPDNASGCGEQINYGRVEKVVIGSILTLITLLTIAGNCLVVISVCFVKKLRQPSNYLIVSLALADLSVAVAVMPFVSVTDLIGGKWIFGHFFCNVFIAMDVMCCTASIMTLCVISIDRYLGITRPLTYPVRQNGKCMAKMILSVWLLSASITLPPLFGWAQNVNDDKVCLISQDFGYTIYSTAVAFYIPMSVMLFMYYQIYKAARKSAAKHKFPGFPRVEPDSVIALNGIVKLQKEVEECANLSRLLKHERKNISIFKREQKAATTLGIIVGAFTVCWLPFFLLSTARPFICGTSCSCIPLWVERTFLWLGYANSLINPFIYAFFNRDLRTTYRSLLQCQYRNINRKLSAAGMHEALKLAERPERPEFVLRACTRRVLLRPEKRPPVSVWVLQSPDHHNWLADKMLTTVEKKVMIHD
Source text: as §1

[11] = molecular target: β3-adrenergic (Homo sapiens, UniProt P13945); assay: Binding studies; conditions: β3-adrenergic binding site
Sequence of β3-adrenergic (P13945 whole entry): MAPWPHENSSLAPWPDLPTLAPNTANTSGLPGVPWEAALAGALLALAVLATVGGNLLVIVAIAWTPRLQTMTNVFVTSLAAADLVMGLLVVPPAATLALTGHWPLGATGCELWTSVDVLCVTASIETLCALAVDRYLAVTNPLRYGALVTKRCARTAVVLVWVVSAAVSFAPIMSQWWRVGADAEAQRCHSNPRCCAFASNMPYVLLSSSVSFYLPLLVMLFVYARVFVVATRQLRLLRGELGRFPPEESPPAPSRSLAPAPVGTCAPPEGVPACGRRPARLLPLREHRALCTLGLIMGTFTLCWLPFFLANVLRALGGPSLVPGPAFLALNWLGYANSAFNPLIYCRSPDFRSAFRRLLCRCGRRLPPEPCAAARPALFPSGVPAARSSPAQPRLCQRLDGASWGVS
Source text: as §1

[12] = molecular target: histamine H1 (Homo sapiens, UniProt P35367); assay: Binding studies; conditions: histamine H1 binding site
Sequence of histamine H1 (P35367 whole entry): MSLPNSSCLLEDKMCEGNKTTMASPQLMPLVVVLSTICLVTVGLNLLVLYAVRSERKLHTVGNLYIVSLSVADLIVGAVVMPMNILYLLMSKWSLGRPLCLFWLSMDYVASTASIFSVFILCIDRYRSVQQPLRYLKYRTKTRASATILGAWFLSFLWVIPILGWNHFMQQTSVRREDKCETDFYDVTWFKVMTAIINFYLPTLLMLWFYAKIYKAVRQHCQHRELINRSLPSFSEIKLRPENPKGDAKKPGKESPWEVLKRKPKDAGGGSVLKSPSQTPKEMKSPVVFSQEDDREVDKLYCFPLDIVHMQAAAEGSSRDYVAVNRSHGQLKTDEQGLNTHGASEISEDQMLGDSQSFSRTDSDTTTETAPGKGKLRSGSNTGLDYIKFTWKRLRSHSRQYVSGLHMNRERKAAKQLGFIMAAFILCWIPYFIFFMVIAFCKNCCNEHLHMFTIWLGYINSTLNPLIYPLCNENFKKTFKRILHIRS
Source text: as §1

[13] = molecular target: histamine H2 (Homo sapiens, UniProt P25021); assay: Binding studies; conditions: histamine H2 binding site
Sequence of histamine H2 (P25021 whole entry): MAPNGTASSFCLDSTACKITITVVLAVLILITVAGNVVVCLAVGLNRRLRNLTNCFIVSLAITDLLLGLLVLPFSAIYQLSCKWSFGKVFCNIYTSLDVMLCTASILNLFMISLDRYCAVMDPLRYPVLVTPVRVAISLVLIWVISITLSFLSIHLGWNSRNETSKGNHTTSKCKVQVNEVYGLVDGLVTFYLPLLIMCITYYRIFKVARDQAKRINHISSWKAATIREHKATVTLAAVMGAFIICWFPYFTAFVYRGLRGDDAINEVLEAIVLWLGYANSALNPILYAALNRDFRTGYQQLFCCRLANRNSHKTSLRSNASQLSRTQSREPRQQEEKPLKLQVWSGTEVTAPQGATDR
Source text: as §1

[14] = system: sodium channels; assay: Antagonism at sodium channels
Source text: as §1

[15] = cat, in vivo
Method: Eliprodil and its enantiomers were evaluated for their potential for prolonging QTc by determining their dose-related effects on cardiac electrical activity. Two different experimental models were utilized for these studies: (1) Action potential duration in piglet Purkinje fibers from the heart and (2) Electrocardiographic parameters in pentobarbital anesthetized cats.
Eliprodil and its two enantiomers were also evaluated for hemodynamic and electrocardiographic parameters in pentobarbital-anesthetized cats. […] Compounds were administered at increasing doses from 0.01 to 3 mg/kg as a five-minute intravenous infusion every 20 minutes.

[16] = system: voltage operated calcium channels of the L, N and P type; assay: Antagonism at voltage operated calcium channels
Source text: as §1

[17] = molecular target: NMDA receptor (Homo sapiens, UniProt Q05586+Q13224); assay: biochemical
Sequence of NMDA receptor (Q13224 27-1484, other chains not shown): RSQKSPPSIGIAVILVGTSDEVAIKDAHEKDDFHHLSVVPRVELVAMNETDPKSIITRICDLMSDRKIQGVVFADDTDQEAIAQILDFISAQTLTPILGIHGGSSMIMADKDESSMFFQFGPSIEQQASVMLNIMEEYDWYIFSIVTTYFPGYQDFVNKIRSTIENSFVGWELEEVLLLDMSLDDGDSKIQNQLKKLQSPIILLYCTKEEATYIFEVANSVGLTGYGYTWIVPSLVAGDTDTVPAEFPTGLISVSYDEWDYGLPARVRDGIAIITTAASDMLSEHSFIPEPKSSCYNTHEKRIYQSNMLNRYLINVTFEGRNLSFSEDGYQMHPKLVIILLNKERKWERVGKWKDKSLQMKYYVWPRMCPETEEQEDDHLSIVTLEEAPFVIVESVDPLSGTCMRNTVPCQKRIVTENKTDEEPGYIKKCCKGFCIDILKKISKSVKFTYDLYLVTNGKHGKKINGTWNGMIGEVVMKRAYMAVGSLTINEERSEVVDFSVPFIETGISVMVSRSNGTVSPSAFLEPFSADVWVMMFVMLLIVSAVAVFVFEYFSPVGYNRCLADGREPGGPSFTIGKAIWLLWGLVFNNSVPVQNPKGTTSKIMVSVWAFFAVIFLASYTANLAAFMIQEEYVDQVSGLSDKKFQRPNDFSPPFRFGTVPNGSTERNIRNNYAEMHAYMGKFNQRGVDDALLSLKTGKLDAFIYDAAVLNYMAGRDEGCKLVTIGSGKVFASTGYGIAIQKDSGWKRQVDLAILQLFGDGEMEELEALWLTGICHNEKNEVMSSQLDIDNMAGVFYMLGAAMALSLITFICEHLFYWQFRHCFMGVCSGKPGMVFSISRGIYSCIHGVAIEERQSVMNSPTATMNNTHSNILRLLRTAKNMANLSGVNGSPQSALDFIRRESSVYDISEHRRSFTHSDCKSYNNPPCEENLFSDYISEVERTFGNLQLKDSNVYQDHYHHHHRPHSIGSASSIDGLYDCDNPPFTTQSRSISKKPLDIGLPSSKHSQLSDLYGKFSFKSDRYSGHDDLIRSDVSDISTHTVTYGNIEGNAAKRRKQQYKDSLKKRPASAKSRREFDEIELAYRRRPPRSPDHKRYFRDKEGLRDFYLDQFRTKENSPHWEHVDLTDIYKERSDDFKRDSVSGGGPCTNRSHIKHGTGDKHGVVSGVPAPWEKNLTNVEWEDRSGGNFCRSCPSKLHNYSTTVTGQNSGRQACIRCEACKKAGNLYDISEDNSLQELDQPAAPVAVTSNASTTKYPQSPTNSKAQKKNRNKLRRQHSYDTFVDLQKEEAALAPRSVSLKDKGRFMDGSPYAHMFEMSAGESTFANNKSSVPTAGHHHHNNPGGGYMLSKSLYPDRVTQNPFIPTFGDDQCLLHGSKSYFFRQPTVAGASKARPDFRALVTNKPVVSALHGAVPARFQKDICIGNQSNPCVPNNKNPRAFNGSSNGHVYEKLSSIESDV

Structure (SMILES)	Inhibition of NMDA-induced firing rate of the lateral vestibular nucleus [1]	Maximum effect on APD90 [2]	Neuroprotective effect on glutamate-induced retinal ganglion cell death (survival) [3]	Recovery of excitatory post synaptic potentials following hypoxia (efficacy) [5]	Threshold Dose, Heart Rate Decrease [15] [mg/kg]	Threshold Dose, Mean Blood Pressure Decrease [15] [mg/kg]	Threshold Dose, QTc Prolongation [15] [mg/kg]	Concentration with statistically significant prolongation of APD90 [2] [nM]	Ki [17] [µM]	further results
OC(CN1CCC(Cc2ccc(F)cc2)CC1)c1ccc(Cl)cc1 (racemic) [Eliprodil]	strongly inhibit	equal to that of S(+) eliprodil	marked neuroprotective activity	less effective	0.1	1.0	0.03			Effect on APD90 at low concentrations [2]: intermediate between the two enantiomers; QTc prolongation [4]: asymptomatic QTc prolongation; Affinity [6]: sub-micromolar; Affinity [7]: sub-micromolar; Affinity [8]: sub-micromolar; Affinity [9]: sub-micromolar; Affinity [10]: sub-micromolar; Affinity [11]: sub-micromolar; Affinity [12]: sub-micromolar; Affinity [13]: sub-micromolar; Antagonism at sodium channels [14]: shows antagonism; Antagonism at voltage operated calcium channels [16]: shows antagonism
O[C@@H](CN1CCC(Cc2ccc(F)cc2)CC1)c1ccc(Cl)cc1 [R-eliprodil, R-α-(4-chlorophenyl)-4-(4-fluorophenylmethyl)-1-peperidineethanol]	strongly inhibit	less than is that seen with S(+) eliprodil	marked neuroprotective activity; also recorded: as efficacious as a protectant as racemic eliprodil	substantial recovery; also recorded: more efficacious than either racemic or S-eliprodil	0.3	1.0	0.1	≥ 100	0.2	Potency (EC50) for recovery of synaptic transmission, compared with racemic-eliprodil or memantine ([5]; p<0.05, Student's t-test, FIG. 2): statistically significantly more potent; Plasma level ([15]; iv, 0.1 mg/kg): 34.9 ± 2.8 ng/mL
O[C@H](CN1CCC(Cc2ccc(F)cc2)CC1)c1ccc(Cl)cc1 [S-eliprodil]	almost inactive at the highest dose tested		ineffective	less effective	0.1	1.0	0.01	≥ 30	10	
